Experiment [1] deals with T1, AurA kinase (Homo sapiens, UniProt O14965).
T1 construct: purchased Carna Biosciences Inc. (Kobe) 05-101
T1 sequence (O14965 1-403): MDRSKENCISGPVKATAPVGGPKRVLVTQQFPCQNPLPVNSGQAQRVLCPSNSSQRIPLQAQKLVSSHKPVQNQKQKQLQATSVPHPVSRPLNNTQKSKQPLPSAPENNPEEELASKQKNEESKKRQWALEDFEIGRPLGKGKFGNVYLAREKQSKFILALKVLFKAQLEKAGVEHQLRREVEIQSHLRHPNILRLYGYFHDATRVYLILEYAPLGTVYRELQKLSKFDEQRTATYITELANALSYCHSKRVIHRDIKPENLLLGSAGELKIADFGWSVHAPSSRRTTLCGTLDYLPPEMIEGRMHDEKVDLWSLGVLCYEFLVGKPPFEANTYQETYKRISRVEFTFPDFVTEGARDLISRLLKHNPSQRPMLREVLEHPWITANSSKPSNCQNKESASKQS
The experiment is described as follows: Kinase activity, mobility shift assay (MSA), AurA. It counts as biochemical. The settings on record: read-out: inhibitory activity against AurA kinase. The procedure: (§1) A test compound was dissolved in DMSO to obtain a 10 mM test compound solution, which was stored in a dark place at −20° C. until measurement. When bioactivity (kinase activity) is measured, a test compound solution is diluted with DMSO so that the concentration becomes 100 times higher than […], and then diluted 25 times (DMSO concentration is 4%) with an assay buffer described hereinafter.
(§2) Products manufactured by Carna Biosciences Inc. (Kobe) used as protein kinases (recombinant human kinases) in the test are as follows: […]
(§3) Kinase activity was measured by a mobility shift assay (MSA) method using QuickScout Screening Assist™ MSA (commercially available kit, manufactured by Carna Biosciences Inc.)
(§4) 5 μl of a test compound solution (the concentration is 4 times of the final concentration) dissolved or suspended in an assay buffer [20 mM HEPES, 0.01% Triton™ X-100, 1 mM dithiothreitol, pH 7.5] or 5 μl of a solvent (4% DMSO-assay buffer) was charged in a 384 well plate made of polypropylene (product number 781280, manufactured by Greiner Bio-One Co., Ltd.). […] Inhibition (%) of the test compound was calculated in accordance with the following equation: […]

Experiment [2] has as its target JAK2 (Homo sapiens, UniProt O60674). The experiment is described as follows: Kinase activity, mobility shift assay (MSA), JAK2. The settings on record: read-out: inhibitory activity against JAK2 kinase. It counts as biochemical.
The target of experiment [3] is T2, JAK3 (Homo sapiens, UniProt P52333).
T2 construct: purchased Carna Biosciences Inc. (Kobe) 08-046
T2 sequence (P52333 1-1124): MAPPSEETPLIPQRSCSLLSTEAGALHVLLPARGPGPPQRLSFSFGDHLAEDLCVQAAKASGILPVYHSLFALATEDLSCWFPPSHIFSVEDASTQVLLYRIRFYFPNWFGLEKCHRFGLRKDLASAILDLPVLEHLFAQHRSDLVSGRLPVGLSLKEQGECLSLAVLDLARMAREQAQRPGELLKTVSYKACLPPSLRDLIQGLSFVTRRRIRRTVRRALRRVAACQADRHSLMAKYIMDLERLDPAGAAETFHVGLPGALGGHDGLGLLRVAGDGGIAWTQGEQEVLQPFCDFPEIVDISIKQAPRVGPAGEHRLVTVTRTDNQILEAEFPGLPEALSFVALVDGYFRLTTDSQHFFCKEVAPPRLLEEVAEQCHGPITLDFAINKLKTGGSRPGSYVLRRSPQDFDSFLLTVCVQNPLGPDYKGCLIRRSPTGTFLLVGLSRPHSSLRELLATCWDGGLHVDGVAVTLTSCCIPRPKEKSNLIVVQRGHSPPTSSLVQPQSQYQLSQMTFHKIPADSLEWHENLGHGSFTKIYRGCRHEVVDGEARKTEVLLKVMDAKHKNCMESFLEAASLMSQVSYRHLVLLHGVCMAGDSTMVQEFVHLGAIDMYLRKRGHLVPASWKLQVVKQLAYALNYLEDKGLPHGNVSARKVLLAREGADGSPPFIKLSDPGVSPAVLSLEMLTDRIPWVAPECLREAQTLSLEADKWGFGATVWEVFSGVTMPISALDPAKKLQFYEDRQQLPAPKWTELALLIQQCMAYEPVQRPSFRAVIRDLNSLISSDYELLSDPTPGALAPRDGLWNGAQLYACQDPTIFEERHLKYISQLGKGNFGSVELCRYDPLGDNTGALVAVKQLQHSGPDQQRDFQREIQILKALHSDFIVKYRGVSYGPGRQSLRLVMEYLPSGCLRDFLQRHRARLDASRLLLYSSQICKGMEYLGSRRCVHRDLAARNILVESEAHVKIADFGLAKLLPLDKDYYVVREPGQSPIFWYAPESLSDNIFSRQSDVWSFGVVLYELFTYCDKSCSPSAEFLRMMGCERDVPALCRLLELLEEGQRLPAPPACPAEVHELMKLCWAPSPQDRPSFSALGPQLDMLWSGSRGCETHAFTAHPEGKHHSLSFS
Briefly: Kinase activity, mobility shift assay (MSA), JAK3. It counts as biochemical. To be noted: read-out: inhibitory activity against JAK3 kinase. Here is the method:
as §1, §2, §3, §4

Experiment [4] deals with Rat basophilic cells RBL-2H3. The experiment is described as follows: Action against IgE-induced degranulation (β-hexosaminidase release). It counts as cell-based. The settings on record: RBL-2H3 cells, anti-DNP-IgE / DNP-BSA, read-out: inhibitory activity against IgE-induced degranulation. The procedure:
An inhibitory action against SYK was evaluated by an inhibitory action against degranulation of basophils induced by IgE. Rat basophilic cells RBL-2H3 were incubated with an anti-DNP-IgE antibody (1 μg/mL, Zymed) overnight. After washing cells twice with HBSS, an antigen DNP-BSA (1 μg/mL, LSL) was added, followed by incubation for 30 minutes. The supernatant was taken and an activity of β-hexosaminidase in the solution isolated by degranulation was measured using p-nitrophenyl-N-β-D-glucosaminide as a substrate. Using an absorbance meter (Spectra MAX Pro, Molecular Devices), each absorbance at 405 nm and 570 nm of the solution was measured and an increase in the amount was taken as an enzyme activity. 10 minutes before the addition of an antigen, a test material and a solvent (0.1% DMSO) were added to cells. Inhibition rate (%) against degranulation was calculated by the following equation.
Inhibition rate (%)=(1−(A−C)/(B−C))×100
where A denotes an increase in absorbance of a test material group, B denotes an increase in absorbance of a solvent group, and C denotes an increase in absorbance of a solvent group which is not stimulated by an antigen.

The target in experiment [5] is T3, Syk kinase (Homo sapiens, UniProt P43405).
T3 construct: purchased Carna Biosciences Inc. (Kobe) 08-176
The experiment is described as follows: Kinase activity, mobility shift assay (MSA), Syk. Format: biochemical. The settings on record: read-out: inhibitory activity against Syk kinase. The procedure: as §1
Products manufactured by Carna Biosciences Inc. (Kobe) used as protein kinases (recombinant human kinases) in the test are as follows:
SYK (product number: 08-176), JAK3 (product number: 08-046), FLT3 (product number: 08-154), PDGFRα (PDGFRA) (product number: 08-157), TRKA (NTRK1) (product number: 08-186), KDR (product number: 08-191), CDK2/cycA (product number: 04-103), and AurA (AURKA) (product number: 05-101).
as §3
5 μl of a test compound solution (the concentration is 4 times of the final concentration) dissolved or suspended in an assay buffer [20 mM HEPES, 0.01% Triton™ X-100, 1 mM dithiothreitol, pH 7.5] or 5 μl of a solvent (4% DMSO-assay buffer) was charged in a 384 well plate made of polypropylene (product number 781280, manufactured by Greiner Bio-One Co., Ltd.). Then, 5 μl of ATP/substrate/metal solution of QuickScout Screening Assist MSA was added. Furthermore, 10 μl of a kinase solution diluted with assay buffer was added and the reaction was initiated. However, only assay buffer (10 μl) was added to blank. The concentration of kinase and reaction conditions were controlled in accordance with the protocol of QuickScout Screening Assist MSA. Then, the reaction was terminated by adding 60 μl of termination buffer of QuickScout Screening Assist MSA and the amount of a substrate (S) and a phosphorylated substrate (P) in the reaction solution were determined in accordance with the protocol of QuickScout Screening Assist MSA using LabChip3000 (manufactured by Caliper Life Sciences Co., MA, USA), and also inhibition of the test compound at a concentration of 0.01, 0.1 and 1 μM was measured, respectively. The amounts of S and P were expressed by the height of each separated peak. Inhibition (%) of the test compound was calculated in accordance with the following equation:
Inhibition (%)=(1−(C−A)/(B−A))×100
where A denotes blank, B denotes a solvent and C denotes P/(P+S) of a well of the compound.

Sequence of JAK2 (O60674 whole entry): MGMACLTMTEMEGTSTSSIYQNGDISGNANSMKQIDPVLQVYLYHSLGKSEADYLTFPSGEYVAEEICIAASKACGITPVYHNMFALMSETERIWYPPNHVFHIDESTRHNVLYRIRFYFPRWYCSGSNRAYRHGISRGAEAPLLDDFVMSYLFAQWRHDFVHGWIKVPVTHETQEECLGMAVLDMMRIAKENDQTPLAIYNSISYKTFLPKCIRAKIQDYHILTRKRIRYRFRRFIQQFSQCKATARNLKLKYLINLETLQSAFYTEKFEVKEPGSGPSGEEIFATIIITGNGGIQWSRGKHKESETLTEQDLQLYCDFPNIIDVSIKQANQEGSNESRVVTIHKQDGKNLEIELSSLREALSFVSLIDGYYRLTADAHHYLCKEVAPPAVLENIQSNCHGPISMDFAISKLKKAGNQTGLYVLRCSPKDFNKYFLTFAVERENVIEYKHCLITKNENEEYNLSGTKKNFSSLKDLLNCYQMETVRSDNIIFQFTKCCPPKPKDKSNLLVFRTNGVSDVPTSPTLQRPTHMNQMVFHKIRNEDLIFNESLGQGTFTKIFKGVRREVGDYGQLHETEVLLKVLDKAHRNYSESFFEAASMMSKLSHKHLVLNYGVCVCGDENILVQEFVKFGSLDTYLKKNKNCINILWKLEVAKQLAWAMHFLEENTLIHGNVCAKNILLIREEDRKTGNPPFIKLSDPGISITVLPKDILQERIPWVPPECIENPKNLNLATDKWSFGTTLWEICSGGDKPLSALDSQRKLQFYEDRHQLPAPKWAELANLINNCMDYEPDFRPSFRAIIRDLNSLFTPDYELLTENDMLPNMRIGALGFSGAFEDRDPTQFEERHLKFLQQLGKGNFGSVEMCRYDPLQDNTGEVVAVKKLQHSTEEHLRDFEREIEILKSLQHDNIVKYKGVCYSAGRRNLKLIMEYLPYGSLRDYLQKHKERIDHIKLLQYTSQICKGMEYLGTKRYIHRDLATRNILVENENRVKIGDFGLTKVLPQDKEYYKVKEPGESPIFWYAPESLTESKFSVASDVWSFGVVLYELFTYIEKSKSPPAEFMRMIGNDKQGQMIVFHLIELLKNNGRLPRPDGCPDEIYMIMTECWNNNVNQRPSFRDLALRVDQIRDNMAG

Consider `Cc1cccc2cnc(Nc3ccc4cc[nH]c4c3)nc12` [Example 5, N-(1H-indol-6-yl)-8-methylquinazoline-2-amine], for which the inhibition at 0.1 µM in experiment [1] was no less than 50%.
Turning to `COc1ccc(Nc2ncc3cccc(C)c3n2)cc1OC` [Example 30], the inhibition at 0.1 µM in experiment [2] and in experiment [3] was no less than 50% each time.
As for `CCNC(=O)n1ncc2c(N)cc(Nc3ncc4cccc(C)c4n3)cc21` [Example 79, 4-amino-N-ethyl-6-(8-methylquinazolin-2-ylamino)-1H-indazole-1-carboxamide], in experiment [4], the inhibition at 0.05 µM is no less than 50%.
Take `CCOC(=O)NCc1cc(Nc2ncc3cccc(C)c3n2)cc2[nH]ncc12` [Example 80, Ethyl [6-(8-methylquinazolin-2-ylamino)-1H-indazol-4-yl]methylcarbamate]: the inhibition at 0.05 µM in experiment [4] was no less than 50%.
For `Cc1cccc2cnc(Nc3cc(O)c4cn[nH]c4c3)nc12` [Example 82, 8-methyl-N-(4-hydroxy-1H-indazol-6-yl)quinazoline-2-amine], the inhibition at 0.05 µM in experiment [4] is no less than 50%. Further, the inhibition at 0.1 µM in experiment [5] was no less than 50%.
Take `Cc1nc2c(N)cc(Nc3ncc4cccc(C)c4n3)cc2[nH]1` [Example 88, 8-methyl-N-(2-methyl-4-amino-1H-benzo[d]imidazol-6-yl)quinazoline-2-amine]: the inhibition at 0.05 µM in experiment [4] is no less than 50%. Moreover, the inhibition at 0.1 µM in experiment [5] was no less than 50%.

The values above are taken from US20100311965A1, “2-AMINOQUINAZOLINE DERIVATIVE” (CARNA BIOSCIENCES INC., priority 2007, published 2010).
